One series relates to N[C@@H](CO)C(=O)O. In words: purified protein, by the assay type.
Series [1] relates to type 2 dehydratase from E. coli. Conditions: cited from earlier work.
Series [2] concerns type 1 dehydratase from P. asaccharolyticus. Conditions: cited from earlier work.

The term kcat/Km denotes the turnover number divided by the Michaelis constant.

For (Legionella pneumophila str. Lens), in the series with N[C@@H](CO)C(=O)O, the specificity constant (kcat/Km) is 165000 ± 8000 M⁻¹ s⁻¹. Consider `N[C@H](CO)C(=O)O` [D-serine], for which, in series [1], the type of inhibition result was “competitive inhibitors”.

Turning to `N[C@@H](CS)C(=O)O` [L-cysteine], the type of inhibition result in series [1] is recorded as “competitive inhibitors”; in series [2] it was “competitive inhibitor”.
